From patent US20250136606A1, “MODULATORS OF TRPML, THEIR COMPOSITIONS AND METHODS OF USE” (Caraway Therapeutics, Inc., priority 2021, published 2025)

What follows are compounds tested against TRPML1 (Homo sapiens, UniProt Q9GZU1) (assay: Fluorescent TRPML1 assay (Fluo4-AM calcium fluorescence in doxycycline-induced HEK-293 Trex cells)). Details: fluorescent calcium assay.
Type: cell-based
Description: HEK-293 Trex cells were stably transfected with a construct consisting of the human coding sequence for TRPML1 cloned into the […] plasmid pCDNA5 T/O. Mutations were introduced into the TRPML1 sequence to facilitate expression on the cell surface (Silvia Vergarajauregui, Rosa Puertollano, Traffic. 2006 March; 7(3): 337-353). Briefly, the cells are cultured in 150 mm round tissue culture dishes containing 20 mL of media. The day before the assay the cells are rinsed with DPBS-Ca—Mg and then treated briefly with Trypsin-EDTA. The Trypsin-EDTA is diluted with growth media, and cells are counted. 38×10^6 cells are re-plated into 150 mm round tissue culture dishes in media containing 0.5 ug/mL doxycycline to induce expression of hTRPML1.
The day of the experiment cells are lifted from the plates as above and collected by centrifugation. The cells are then suspended in dye loading buffer consisting of Ringer's solution supplemented with 0.1% Pluronic Acid and 1 micromolar Fluo4-AM dye. Cells are loaded for ˜60 minutes in the dark with occasional mixing. The cells are collected by centrifugation, the loading media aspirated, and the cells resuspended in 25 mL Ringer's solution and incubated ˜60 minutes in the dark. The cells are again collected by centrifugation, rinsed in Ringer's Solution and resuspended to […] in modified Ringer's solution containing 10 mM calcium.
Compounds are dissolved to a concentration of 10 millimolar with DMSO. Compound plates are created by dispensing compounds into 384 well black wall clear bottom plates (Greiner 781091). Positive and negative controls are included on each plate. Typically, different amounts of each compound are tested ranging from 100 nanoMoles (20 micromolar final concentration) decreasing in half-log steps to 31 picoMoles (6 nanomolar final concentration). Each concentration is typically tested in triplicate.
50 microliters of dye-loaded cells are dispensed into each well of the compound assay plate created above. The fluorescence in each well is then determined with an excitation wavelength of 480 nm and an emission wavelength of 540 nm using either a Molecular Devices SpectraMax multimode plate reader or a Hamamatsu FDSS/uCell plate imager.
The resulting fluorescence for each well is exported as an ascii file and loaded into our LIMS for analysis. The percent activity of each compound at each concentration is determined by comparison to the positive and negative control wells included in each plate.
EC50 values were calculated using a non-linear regression of Prism. In the table, “A” indicates an EC50 of less than 100 nM, “B” indicates an EC50 range from 100 nM to 500 nM; “C” indicates an EC50 range from 500 nM to 2 μM; and “D” indicates an EC50 greater than 2 μM.

Chain of TRPML1 (Q9GZU1 whole entry L15A/L16A/L577A/L578A, form open): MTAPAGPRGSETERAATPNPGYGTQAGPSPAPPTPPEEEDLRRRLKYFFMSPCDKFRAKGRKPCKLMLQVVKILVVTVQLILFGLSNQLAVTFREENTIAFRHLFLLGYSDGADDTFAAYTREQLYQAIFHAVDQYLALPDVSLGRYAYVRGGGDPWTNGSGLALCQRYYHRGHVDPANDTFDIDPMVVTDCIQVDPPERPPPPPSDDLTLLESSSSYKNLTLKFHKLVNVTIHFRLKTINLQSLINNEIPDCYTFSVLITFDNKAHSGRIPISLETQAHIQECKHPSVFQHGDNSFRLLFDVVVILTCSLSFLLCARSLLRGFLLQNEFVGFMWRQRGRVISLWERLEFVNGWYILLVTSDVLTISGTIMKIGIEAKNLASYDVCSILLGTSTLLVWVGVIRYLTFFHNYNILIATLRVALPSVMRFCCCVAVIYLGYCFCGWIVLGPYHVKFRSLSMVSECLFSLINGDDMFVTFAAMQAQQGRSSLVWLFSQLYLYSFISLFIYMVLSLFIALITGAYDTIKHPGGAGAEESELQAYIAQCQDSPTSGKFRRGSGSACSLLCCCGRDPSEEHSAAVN

Row | EC50 [nM] | SMILES
1 | < 100 | CC(C)(C)OC(=O)N1CCN(c2ncnc3c2c(C2CC2)cn3-c2cc(F)cc(F)c2)C[C@@H]1C(F)(F)F [Compound 276, tert-butyl (R)-4-(5-cyclopropyl-7-(3,5-difluorophenyl)-7H-pyrrolo[2,3-d]pyrimidin-4-yl)-2-(trifluoromethyl)piperazine-1-carboxylate]
2 | < 100 | C[C@@H]1CN(c2ncnc3c2c(N2CCCC2)cn3-c2cccc(C#N)c2)CCN1C(=O)OC(C)(C)C [Compound 277, tert-butyl (R)-4-(7-(3-cyanophenyl)-5-(pyrrolidin-1-yl)-7H-pyrrolo[2,3-d]pyrimidin-4-yl)-2-methylpiperazine-1-carboxylate]
3 | 500 to 2000 | COc1cccc(-n2cc(-c3ccccn3)c3c(N4CCN(C(=O)OC(C)(C)C)C[C@@H]4C)ncnc32)c1 [Compound 278, tert-butyl (S)-4-(7-(3-methoxyphenyl)-5-(pyridin-2-yl)-7H-pyrrolo[2,3-d]pyrimidin-4-yl)-3-methylpiperazine-1-carboxylate]
4 | 100 to 500 | C[C@H]1CN(C(=O)OC(C)(C)C)CCN1c1ncnc2c1c(-c1ccccn1)cn2-c1cccc(OC(F)(F)F)c1 [Compound 279, tert-butyl (S)-3-methyl-4-(5-(pyridin-2-yl)-7-(3-(trifluoromethoxy)phenyl)-7H-pyrrolo[2,3-d]pyrimidin-4-yl)piperazine-1-carboxylate]
5 | 100 to 500 | C[C@H]1CN(C(=O)OC(C)(C)C)CCN1c1ncnc2c1c(-c1ccccn1)cn2-c1cccc(C#N)c1 [Compound 280, tert-butyl (S)-4-(7-(3-cyanophenyl)-5-(pyridin-2-yl)-7H-pyrrolo[2,3-d]pyrimidin-4-yl)-3-methylpiperazine-1-carboxylate]
6 | < 100 | C[C@H]1CN(C(=O)OC(C)(C)C)CCN1c1ncnc2c1c(-c1cccnc1)cn2-c1cccc(OC(F)(F)F)c1 [Compound 281, tert-butyl-(S)-3-methyl-4-(5-(pyridin-3-yl)-7-(3-(trifluoromethoxy)phenyl)-7H-pyrrolo [2,3-d]pyrimidin-4-yl)piperazine-1-carboxylate]
7 | 100 to 500 | C[C@H]1CN(C(=O)OC(C)(C)C)CCN1c1ncnc2c1c(-c1cccnc1)cn2-c1cccc(C#N)c1 [Compound 282, tert-butyl-(S)-4-(7-(3-cyanophenyl)-5-(pyridin-3-yl)-7H-pyrrolo[2,3-d]pyrimidin-4-yl)-3-methylpiperazine-1-carboxylate]
8 | 500 to 2000 | C[C@H]1CN(C(=O)OC(C)(C)C)CCN1c1ncnc2c1c(C1CCOCC1)nn2-c1cccc(Cl)c1 [Compound 284, tert-butyl (S)-4-(1-(3-chlorophenyl)-3-(tetrahydro-2H-pyran-4-yl)-1H-pyrazolo[3,4-d]pyrimidin-4-yl)-3-methylpiperazine-1-carboxylate]
9 | < 100 | C[C@H]1CN(C(=O)OC(C)(C)C)CCN1c1ncnc2c1c(N1CCCC1)cn2-c1cccc(C#N)c1 [Compound 285, tert-butyl (S)-4-(7-(3-cyanophenyl)-5-(pyrrolidin-1-yl)-7H-pyrrolo[2,3-d]pyrimidin-4-yl)-3-methylpiperazine-1-carboxylate]
10 | 100 to 500 | C[C@@H]1CCCN1c1cn(-c2cccc(Cl)c2)c2ncnc(N3CCN(C(=O)OC(C)(C)C)C[C@@H]3C)c12 [Compound 286, tert-butyl (S)-4-(7-(3-chlorophenyl)-5-((R)-2-methylpyrrolidin-1-yl)-7H-pyrrolo[2,3-d]pyrimidin-4-yl)-3-methylpiperazine-1-carboxylate]
11 | < 100 | C[C@@H]1CN(c2ncnc3c2c(N2CCCCC2)cn3-c2cccc(Cl)c2)CCN1C(=O)OC(C)(C)C [Compound 287, tert-butyl (R)-4-(7-(3-chlorophenyl)-5-(piperidin-1-yl)-7H-pyrrolo[2,3-d]pyrimidin-4-yl)-2-methylpiperazine-1-carboxylate]
12 | 100 to 500 | COc1cc(F)cc(-n2cc(C3CC3)c3c(N4CCN(C(=O)OC(C)(C)C)C[C@@H]4C)ncnc32)c1 [Compound 288, tert-butyl (S)-4-(5-cyclopropyl-7-(3-fluoro-5-methoxyphenyl)-7H-pyrrolo[2,3-d]pyrimidin-4-yl)-3-methylpiperazine-1-carboxylate]
13 | 100 to 500 | COc1cc(OC)cc(-n2cc(C3CC3)c3c(N4CCN(C(=O)OC(C)(C)C)C[C@@H]4C)ncnc32)c1 [Compound 289, tert-butyl (S)-4-(5-cyclopropyl-7-(3,5-dimethoxyphenyl)-7H-pyrrolo[2,3-d]pyrimidin-4-yl)-3-methylpiperazine-1-carboxylate]
14 | < 100 | C[C@H]1CN(C(=O)OC(C)(C)C)CCN1c1ncnc2c1c(C1CC1)cn2-c1ccc(F)c(C#N)c1 [Compound 290, tert-butyl (S)-4-(7-(3-cyano-4-fluorophenyl)-5-cyclopropyl-7H-pyrrolo[2,3-d]pyrimidin-4-yl)-3-methylpiperazine-1-carboxylate]
15 | < 100 | C[C@H]1CN(C(=O)OC(C)(C)C)CCN1c1ncnc2c1c(C1CC1)cn2-c1cc(F)cc(C#N)c1 [Compound 291, tert-butyl (S)-4-(7-(3-cyano-5-fluorophenyl)-5-cyclopropyl-7H-pyrrolo[2,3-d]pyrimidin-4-yl)-3-methylpiperazine-1-carboxylate]
16 | 100 to 500 | C[C@H]1CN(C(=O)OC(C)(C)C)CCN1c1ncnc2c1c(C1CC1)cn2-c1cc(C#N)cc(C#N)c1 [Compound 292, tert-butyl (S)-4-(5-cyclopropyl-7-(3,5-dicyanophenyl)-7H-pyrrolo[2,3-d]pyrimidin-4-yl)-3-methylpiperazine-1-carboxylate]
17 | 500 to 2000 | COc1cccc(-n2cc(-c3nccnc3C)c3c(N4CCN(C(=O)OC(C)(C)C)C[C@@H]4C)ncnc32)c1 [Compound 293, tert-butyl (S)-4-(7-(3-methoxyphenyl)-5-(3-methylpyrazin-2-yl)-7H-pyrrolo[2,3-d]pyrimidin-4-yl)-3-methylpiperazine-1-carboxylate]
18 | 500 to 2000 | Cc1nccnc1-c1cn(-c2cccc(C#N)c2)c2ncnc(N3CCN(C(=O)OC(C)(C)C)C[C@@H]3C)c12 [Compound 294, tert-butyl (S)-4-(7-(3-cyanophenyl)-5-(3-methylpyrazin-2-yl)-7H-pyrrolo[2,3-d]pyrimidin-4-yl)-3-methylpiperazine-1-carboxylate]
19 | 500 to 2000 | COc1cccc(-n2cc(-c3cnccn3)c3c(N4CCN(C(=O)OC(C)(C)C)C[C@@H]4C)ncnc32)c1 [Compound 295, tert-butyl (S)-4-(7-(3-methoxyphenyl)-5-(pyrazin-2-yl)-7H-pyrrolo[2,3-d]pyrimidin-4-yl)-3-methylpiperazine-1-carboxylate]
20 | 100 to 500 | C[C@H]1CN(C(=O)OC(C)(C)C)CCN1c1ncnc2c1c(-c1cnccn1)cn2-c1cccc(OC(F)(F)F)c1 [Compound 296, tert-butyl (S)-3-methyl-4-(5-(pyrazin-2-yl)-7-(3-(trifluoromethoxy)phenyl)-7H-pyrrolo[2,3-d]pyrimidin-4-yl)piperazine-1-carboxylate]
21 | 500 to 2000 | C[C@H]1CN(C(=O)OC(C)(C)C)CCN1c1ncnc2c1c(-c1cnccn1)cn2-c1cccc(C#N)c1 [Compound 297, tert-butyl (S)-4-(7-(3-cyanophenyl)-5-(pyrazin-2-yl)-7H-pyrrolo[2,3-d]pyrimidin-4-yl)-3-methylpiperazine-1-carboxylate]
22 | 500 to 2000 | C[C@H]1CN(C(=O)OC(C)(C)C)CCN1c1ncnc2c1c(N1CCC[C@H]1CO)cn2-c1cccc(Cl)c1 [Compound 298, tert-butyl (S)-4-(7-(3-chlorophenyl)-5-((S)-2-(hydroxymethyl)pyrrolidin-1-yl)-7H-pyrrolo[2,3-d]pyrimidin-4-yl)-3-methylpiperazine-1-carboxylate]
23 | < 100 | C[C@H]1CN(C(=O)OC(C)(C)C)CCN1c1ncnc2c1c(N1CCCC1)cn2-c1cc(F)c(F)c(F)c1 [Compound 356, tert-butyl (S)-3-methyl-4-(5-(pyrrolidin-1-yl)-7-(3,4,5-trifluorophenyl)-7H-pyrrolo[2,3-d]pyrimidin-4-yl)piperazine-1-carboxylate]
24 | < 100 | C[C@H]1CN(C(=O)OC(C)(C)C)CCN1c1ncnc2c1c(C1CC1)nn2-c1cccc(C#N)c1 [Compound 357, tert-butyl (S)-4-(1-(3-cyanophenyl)-3-cyclopropyl-1H-pyrazolo[3,4-d]pyrimidin-4-yl)-3-methylpiperazine-1-carboxylate]
25 | < 100 | C[C@H]1CN(C(=O)OC(C)(C)C)CCN1c1ncnc2c1c(N1CCC(C)(C)C1)cn2-c1cccc(C#N)c1 [Compound 358, tert-Butyl (S)-4-(7-(3-cyanophenyl)-5-(3,3-dimethylpyrrolidin-1-yl)-7H-pyrrolo[2,3-d]pyrimidin-4-yl)-3-methylpiperazine-1-carboxylate]
